Test results: the OPERA property sets (Mansouri et al. 2018)
In brackets after ≈: the same amount, converted by molar mass.

conditions: 25 °C

First: Cc1ccc(Br)cc1
Second: CCc1ccccc1Br
The solubility of the first is 3-fold higher: 0.643 mM (≈ 110 µg/mL) for the first, 0.214 mM (≈ 39.5 µg/mL) for the second.

Compared with `Brc1ccccc1Br`, `CC(C)c1ccccc1Br` is 4.9-fold lower in solubility: 0.316 mM (≈ 74.6 µg/mL) for the first, 0.0646 mM (≈ 12.9 µg/mL) for the second.

Going from `Brc1cc(Br)cc(Br)c1` to `Cc1c2ccccc2cc2c1cc(F)c1ccccc12`, the solubility falls from 0.00251 mM (≈ 0.79 µg/mL) to 4.9e-05 mM (≈ 0.0127 µg/mL) (51-fold).

First: ICCI
Second: CCC(C)OC (stereo unspecified)
The solubility of the first is 310-fold lower: 0.606 mM (≈ 171 µg/mL) for the first, 186 mM (≈ 16400 µg/mL) for the second.

Going from `CC(C)OC=O` to `CC(C)[C@@H](C)CO`, the solubility rises from 235 mM (≈ 20700 µg/mL) to 427 mM (≈ 43600 µg/mL) (1.8-fold).

Going from `C=COC1CC1` to `CC1CCOC1` (stereo unspecified), the solubility rises from 79.4 mM (≈ 6680 µg/mL) to 1230 mM (≈ 106000 µg/mL) (15-fold).

Going from `CCS` to `CCCC(C)(C)CO`, the solubility falls from 166 mM (≈ 10300 µg/mL) to 33.1 mM (≈ 3850 µg/mL) (5-fold).

Going from `CCOC(=O)CCCC(=O)OCC` to `Sc1ccccc1`, the solubility falls from 46.8 mM (≈ 8810 µg/mL) to 7.58 mM (≈ 835 µg/mL) (6.2-fold).
